Earlier results in patent US8222270B2 (Medicis Pharmaceutical Corporation, priority 2008, dated 2012).

Tested on: actinic keratoses
Settings: cited from earlier work

O=c1[nH]cc(F)c(=O)[nH]1 [Formulation 5-FU, 5-fluorouracil]
Sustained clearance of the total treatment field, patients (12-month follow-up): 33%
Sustained clearance rate of initially cleared individual lesions (12-month follow-up): 54%
Histological clearance rate (in vivo): 67%
Initial clinical clearance, patients (in vivo): 96%
